These results are taken from patent US5672710A, “Sulfides, sulfoxides and sulfones disubstituted with a tetrahydronaphthalenyl, chromanyl, thiochromanyl or tetrahydroquinolinyl and substituted phenyl or heteroaryl group, having retinoid-like biological activity” (priority 1995, dated 1997).

SMILES strings stand for the structures. pEC50, pKd: −log10 of the molar value. Some results are limits rather than exact numbers.

The target of the first assay is T1, RXRβ (Mus musculus, UniProt P28704).
T1 construct: expressed in transfected cells; host or cells: CV1
T1 sequence (P28704 1-520): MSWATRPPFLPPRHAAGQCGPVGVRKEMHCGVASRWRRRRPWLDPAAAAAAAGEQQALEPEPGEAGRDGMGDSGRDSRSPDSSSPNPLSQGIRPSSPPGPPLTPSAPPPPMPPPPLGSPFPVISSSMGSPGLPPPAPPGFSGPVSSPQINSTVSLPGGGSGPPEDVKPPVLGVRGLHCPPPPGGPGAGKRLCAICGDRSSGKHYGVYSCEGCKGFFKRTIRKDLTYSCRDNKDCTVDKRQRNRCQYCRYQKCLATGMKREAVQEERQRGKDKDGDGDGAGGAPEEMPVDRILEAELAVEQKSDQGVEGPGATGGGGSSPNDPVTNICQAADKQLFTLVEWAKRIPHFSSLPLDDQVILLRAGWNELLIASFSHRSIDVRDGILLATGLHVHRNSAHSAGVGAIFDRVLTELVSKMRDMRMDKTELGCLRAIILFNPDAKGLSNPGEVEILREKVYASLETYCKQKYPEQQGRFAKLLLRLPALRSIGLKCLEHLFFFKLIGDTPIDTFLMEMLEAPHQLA
Briefly: Holoreceptor transactivation assay, RXRβ. The conditions noted are these: CV1 cells, 36 hours. It counts as cell-based. From the text: (§1) A holoreceptor transactivation assay and a ligand binding assay which measure the ability of the compounds of the invention to bind to the several retinoid receptor subtypes, respectively, are described in published PCT Application No. WO W093/11755 (particularly on pages 30-33 and 37-41) published on Jun. 24, 1993, the specification of which is also incorporated herein by reference. A description of the holoreceptor transactivation assay is also provided below.
(§2) CV1 cells (5,000 cells/well) were transfected with an RAR reporter plasmid MTV-TREp-LUC (50 ng) along with one of the […] expression vectors (10 ng) in an automated 96-well format by the calcium phosphate procedure of Heyman et al. Cell 68, 397-406. (8). For RXRα and RXR.GAMMA. transactivation assays, an RXR-responsive reporter plasmid CRBPII-tk-LUC (50 ng) along with the appropriate RXRexpression vectors (10 ng) was used substantially as described by Heyman et al. above, and Allegretto et al. J. Biol. Chem. 268, 26625-26633. For RXRβ transactivation assays, an RXR-responsive reporter plasmid CPRE-tk-LUC ([…]) along with RXRβ expression vector ([…]) was used as described in above. These reporters contain DRI elements from human CRBPII and certain DRI elements from promoter, respectively. (see Mangelsdorf et al. The Retinoids: Biology, Chemistry and Medicine, pp 319-349, Raven Press Ltd., New York and Heyman et al., cited above) (1, 8). A β-galactosidase (50 ng) expression vector was used as an internal control in the transfections to normalize for variations in transfection efficiency. The cells were transfected in triplicate for 6 hours, followed by incubation with retinoids for 36 hours, and the extracts were assayed for luciferase and β-galactosidase activities. The detailed experimental procedure for holoreceptor transactivations has been described in Heyman et al. above, and Allegretto et al. cited above. The results obtained in this assay in connection with examplary compounds in accordance with the present invention are expressed in EC50 numbers, as they are also in the chimeric receptor transactivation assay. The Heyman et al. Cell 68, 397-406, Allegretto et al. J. Biol. Chem. 268, 26625-26633, and Mangelsdorf et al. The Retinoids: Biology, Chemistry and Medicine, pp 319-349, Raven Press Ltd., New York, are expressly incorporated herein by reference. The results of ligand binding assay are expressed in Kd numbers. (See Cheng et al. Biochemical Pharmacology Vol. 22 pp 3099-3108, expressly incorporated herein by reference.)
Consider `Cc1cc2c(cc1[S+]([O-])c1ccc(C(=O)O)cc1)C(C)(C)CCC2(C)C` (stereo not shown) [Compound 9, 4-(5,6,7,8-tetrahydro-3,5,5,8,8-pentamethyl-2-naphthylsulfoxy)benzoic acid], for which the pEC50 (commonly −log10 of the EC50, conventionally taken in molar units) was 5.52.
On the same count and under the same terms, the value for `CC1(C)CCC(C)(C)c2cc(Sc3ccc(C(=O)O)cc3)ccc21` [Compound 2] was 5.80; that for `Cc1cc2c(cc1Sc1ncc(C(=O)O)s1)C(C)(C)CCC2(C)C` [Compound 15, 2-(5,6,7,8-Tetrahydro-3,5,5,8,8-pentamethyl-2-naphthylthio)-5-thiazolecarboxylic acid] was 5.89; that for `Cc1cc2c(cc1Sc1ccc(C(=O)O)cc1)C(C)(C)CCC2(C)C` [Compound 7, 4-(5,6,7,8-tetrahydro-3,5,5,8,8-pentamethyl-2-Daphthylthio)benzoic acid] was 6.49.

Still in this assay, the particulars now being: CV-1; CV1 cells; relative to all trans retinoic acid; read-out: Transactivation Assay Efficacy (% of RA activity), RXRβ.
With `CC1(C)CCC(C)(C)c2cc(S(=O)(=O)c3ccc(C(=O)O)cc3)ccc21` [Compound 5, 4-(5,6,7,8-tetrahydro-5,5,8,8-tetramethyl-2-naphthylsulfonyl)benzoic acid], the Emax was 11%.
Same read-out and setting: the value for `Cc1cc2c(cc1[S+]([O-])c1ccc(C(=O)O)cc1)C(C)(C)CCC2(C)C` (stereo not shown) [Compound 9, 4-(5,6,7,8-tetrahydro-3,5,5,8,8-pentamethyl-2-naphthylsulfoxy)benzoic acid] was 29%.
Turning to `CC1(C)CCC(C)(C)c2cc(Sc3ccc(C(=O)O)cc3)ccc21` [Compound 2], the Emax turned out to be 80%.
The same measure, in the same setting: the value for `Cc1cc2c(cc1Sc1ncc(C(=O)O)s1)C(C)(C)CCC2(C)C` [Compound 15, 2-(5,6,7,8-Tetrahydro-3,5,5,8,8-pentamethyl-2-naphthylthio)-5-thiazolecarboxylic acid] was 117%; that for `Cc1cc2c(cc1Sc1ccc(C(=O)O)cc1)C(C)(C)CCC2(C)C` [Compound 7, 4-(5,6,7,8-tetrahydro-3,5,5,8,8-pentamethyl-2-Daphthylthio)benzoic acid] was 114%.

Another assay has as its target T1, RXRβ. Briefly: Ligand binding assay, RXRβ.
Conditions: not given
Text: as §1, §2
For `CC1(C)CCC(C)(C)c2cc(S(=O)(=O)c3ccc(C(=O)O)cc3)ccc21` [Compound 5, 4-(5,6,7,8-tetrahydro-5,5,8,8-tetramethyl-2-naphthylsulfonyl)benzoic acid], the pKd – broadly, the negative decadic logarithm of the Kd, by convention in mol/L – is under 6.00.
The same measure, in the same setting: the value for `Cc1cc2c(cc1[S+]([O-])c1ccc(C(=O)O)cc1)C(C)(C)CCC2(C)C` (stereo not shown) [Compound 9, 4-(5,6,7,8-tetrahydro-3,5,5,8,8-pentamethyl-2-naphthylsulfoxy)benzoic acid] was under 6.00; that for `CC1(C)CCC(C)(C)c2cc(Sc3ccc(C(=O)O)cc3)ccc21` [Compound 2] was under 6.00.
The same measure, in the same setting: the figure for `Cc1cc2c(cc1Sc1ncc(C(=O)O)s1)C(C)(C)CCC2(C)C` [Compound 15, 2-(5,6,7,8-Tetrahydro-3,5,5,8,8-pentamethyl-2-naphthylthio)-5-thiazolecarboxylic acid] is under 6.00; for `Cc1cc2c(cc1Sc1ccc(C(=O)O)cc1)C(C)(C)CCC2(C)C` [Compound 7, 4-(5,6,7,8-tetrahydro-3,5,5,8,8-pentamethyl-2-Daphthylthio)benzoic acid] it is 6.52; for `Cc1cc2c(cc1Sc1ccc(C(=O)O)cn1)C(C)(C)CCC2(C)C` [Compound 13] it is 7.24.

The target of a further assay is T2, RXRγ (Mus musculus, UniProt P28705).
T2 construct: expressed in transfected cells; host or cells: CV1
T2 sequence (P28705 1-463): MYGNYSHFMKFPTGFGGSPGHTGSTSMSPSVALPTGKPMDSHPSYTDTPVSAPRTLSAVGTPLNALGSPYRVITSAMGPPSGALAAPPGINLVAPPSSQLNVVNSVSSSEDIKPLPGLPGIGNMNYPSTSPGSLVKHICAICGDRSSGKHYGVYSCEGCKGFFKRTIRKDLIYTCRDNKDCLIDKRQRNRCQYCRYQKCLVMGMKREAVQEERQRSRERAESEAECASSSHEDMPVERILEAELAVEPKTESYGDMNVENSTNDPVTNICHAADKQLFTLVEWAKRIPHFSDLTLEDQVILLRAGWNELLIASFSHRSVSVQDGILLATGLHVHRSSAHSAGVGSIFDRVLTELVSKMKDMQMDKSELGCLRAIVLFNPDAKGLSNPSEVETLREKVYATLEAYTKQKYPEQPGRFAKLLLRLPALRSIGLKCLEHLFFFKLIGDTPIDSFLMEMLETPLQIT
Description: Holoreceptor transactivation assay, RXRγ. It counts as cell-based. The settings on record: CV1 cells, 36 hours.
Text: as §1, §2
`CC1(C)CCC(C)(C)c2cc(S(=O)(=O)c3ccc(C(=O)O)cc3)ccc21` [Compound 5, 4-(5,6,7,8-tetrahydro-5,5,8,8-tetramethyl-2-naphthylsulfonyl)benzoic acid] showed a pEC50 of 5.59.
On the same count and under the same terms, the figure for `Cc1cc2c(cc1[S+]([O-])c1ccc(C(=O)O)cc1)C(C)(C)CCC2(C)C` (stereo not shown) [Compound 9, 4-(5,6,7,8-tetrahydro-3,5,5,8,8-pentamethyl-2-naphthylsulfoxy)benzoic acid] is 5.80.
On the same count and under the same terms, the figure for `Cc1cc2c(cc1Sc1ncc(C(=O)O)s1)C(C)(C)CCC2(C)C` [Compound 15, 2-(5,6,7,8-Tetrahydro-3,5,5,8,8-pentamethyl-2-naphthylthio)-5-thiazolecarboxylic acid] is 5.72; for `Cc1cc2c(cc1Sc1ccc(C(=O)O)cc1)C(C)(C)CCC2(C)C` [Compound 7, 4-(5,6,7,8-tetrahydro-3,5,5,8,8-pentamethyl-2-Daphthylthio)benzoic acid] it is 6.64.
On the same count and under the same terms, the figure for `Cc1cc2c(cc1Sc1ccc(C(=O)O)cn1)C(C)(C)CCC2(C)C` [Compound 13] is 7.38.

Staying with this assay, now noted: CV-1; CV1 cells; relative to all trans retinoic acid; read-out: Transactivation Assay Efficacy (% of RA activity), RXRγ.
In the case of `CC1(C)CCC(C)(C)c2cc(S(=O)(=O)c3ccc(C(=O)O)cc3)ccc21` [Compound 5, 4-(5,6,7,8-tetrahydro-5,5,8,8-tetramethyl-2-naphthylsulfonyl)benzoic acid], the Emax came out at 26%.
For `Cc1cc2c(cc1[S+]([O-])c1ccc(C(=O)O)cc1)C(C)(C)CCC2(C)C` (stereo not shown) [Compound 9, 4-(5,6,7,8-tetrahydro-3,5,5,8,8-pentamethyl-2-naphthylsulfoxy)benzoic acid], the Emax was found to be 28%.
In the case of `Cc1cc2c(cc1Sc1ncc(C(=O)O)s1)C(C)(C)CCC2(C)C` [Compound 15, 2-(5,6,7,8-Tetrahydro-3,5,5,8,8-pentamethyl-2-naphthylthio)-5-thiazolecarboxylic acid], the Emax was determined as 70%.
Still for that read-out and setting: the value for `Cc1cc2c(cc1Sc1ccc(C(=O)O)cc1)C(C)(C)CCC2(C)C` [Compound 7, 4-(5,6,7,8-tetrahydro-3,5,5,8,8-pentamethyl-2-Daphthylthio)benzoic acid] was 67%; that for `Cc1cc2c(cc1Sc1ccc(C(=O)O)cn1)C(C)(C)CCC2(C)C` [Compound 13] was 85%.
